Source: the supplement of paper PMC5844555

Tests used:
Test in all cases: 3' UTR reporter interaction score (median-centred robust z-score of log2 firefly/Renilla activity); higher = less repression of the 3' UTR reporter
Conditions in all cases: HEK293T; 48 h
[1] = system: MYT1L
Method in brief: (§1)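 HEK293T cells (10,000/well, 96-well plates) were co-transfected using DharmaFECT Duo with 100 ng firefly luc2P reporter carrying the gene's 3' UTR, 20 ng Renilla pRL-TK control and 2.5 pmol miRNA mimic. Dual-luciferase activities were read 48 h post-transfection. The interaction score is the log-transformed firefly/Renilla ratio as a per-plate robust z-score (median, median absolute deviation), median-centred per miRNA and averaged over at least two independent screens; more negative indicates interaction.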

[2] = system: MYCN
Method in brief: as §1

[3] = system: BRCA2
Method in brief: as §1

[4] = system: PHOX2B
Method in brief: as §1

[5] = system: RB1
Method in brief: as §1

[6] = system: EZH2
Method in brief: as §1

[7] = system: HRAS
Method in brief: as §1

[8] = system: FBXW7
Method in brief: as §1

[9] = system: MYB
Method in brief: as §1

[10] = system: TP53
Method in brief: as §1

[11] = system: MYC
Method in brief: as §1

[12] = system: NOTCH1
Method in brief: as §1

[13] = system: ZEB2
Method in brief: as §1

[14] = system: PHF6
Method in brief: as §1

| Sequence | 3' UTR reporter interaction score [1] | 3' UTR reporter interaction score [2] | 3' UTR reporter interaction score [3] | 3' UTR reporter interaction score [4] | 3' UTR reporter interaction score [5] | 3' UTR reporter interaction score [6] | 3' UTR reporter interaction score [7] | 3' UTR reporter interaction score [8] | 3' UTR reporter interaction score [9] | 3' UTR reporter interaction score [10] | 3' UTR reporter interaction score [11] | 3' UTR reporter interaction score [12] | 3' UTR reporter interaction score [13] | 3' UTR reporter interaction score [14] |
| --- | --- | --- | --- | --- | --- | --- | --- | --- | --- | --- | --- | --- | --- | --- |
| UCCCACGUUGUGGCCCAGCAG | -0.668 | -0.504 | 0.793 | -0.461 | -2.41 | 0.303 | -0.421 | -0.0713 | -0.00342 | 0.863 | 0.28 | 0.591 | -0.736 | 0.0798 |
| UCCCUGAGACCCUAACUUGUGA | 0.796 | 0.264 | 1.7 | -1.65 | -0.398 | 0.82 | 1.12 | -0.252 | -0.19 | -1.15 | 1.24 | -0.154 | 1.05 | 0.386 |
| UCCCUGAGACCCUUUAACCUGUG | 0.364 | -0.334 | 0.772 | -2.78 | 0.0838 | 1.1 | 1.12 | -0.449 | -0.228 | -3.91 | 0.131 | -0.719 | 0.152 | 1.62 |
| UCCCUGUCCUCCAGGAGCUCA | -0.918 | 0.194 | -0.604 | -1.29 | -0.85 | 0.643 | 0.998 | 0.105 | 0.312 | 0.159 | 0.568 | -0.622 | -0.151 | -1.54 |
| UCCGAGCCUGGGUCUCCCUCU | 1.66 | -0.731 | 0.0314 | 1.22 | 0.559 | 0.213 | -0.0807 | 0.832 | -0.402 | 0.107 | -0.43 | 0.141 | -0.318 | -0.194 |
| UCCGUCUCAGUUACUUUAUAGCC | -0.738 | -0.29 | 1.46 | -0.906 | 0.307 | 0.571 | -0.357 | -1.56 | -1.75 | 1.13 | 0.0204 | -0.0124 | -2.24 | 2.5 |
| UCCUGUACUGAGCUGCCCCGAG | -1.49 | 0.364 | -2.39 | 1.42 | -2.81 | 0.519 | 0.706 | 0.155 | -1.33 | -0.164 | -0.142 | -0.221 | -2.27 | -0.91 |
| UCCUUCAUUCCACCGGAGUCUG | 1.34 | 0.466 | -0.488 | -0.547 | 0.813 | 0.832 | -1.28 | -0.512 | 1.93 | -0.464 | 1.16 | -0.263 | -2.53 | 0.83 |
| UCGGAUCCGUCUGAGCUUGGCU | -1.06 | 1.3 | 1.24 | -0.526 | -0.185 | 1.84 | 1.22 | 0.968 | -4.97 | -0.412 | -0.287 | 0.076 | 0.123 | -0.555 |
| UCGGGGAUCAUCAUGUCACGAG | -0.88 | -0.0751 | 0.268 | 0.234 | 1.06 | -0.077 | -0.912 | 0.568 | -0.226 | -0.0214 | -1.16 | -0.696 | 1.06 | 1.52 |
| UCGUACCGUGAGUAAUAAUGC | -0.417 | 0.512 | 0.63 | -1.05 | -1.12 | 0.753 | -0.495 | -0.162 | -2.72 | 0.516 | -0.268 | -1.54 | 0.34 | 1.63 |
| UCGUGCAUCCCUUUAGAGUGUU | -0.28 | 1.34 | 0.369 | -0.719 | 1.71 | 0.153 | -0.817 | 0.538 | -1.1 | -0.886 | -0.38 | -0.139 | -1.93 | 2.24 |
| UCGUGUCUUGUGUUGCAGCCG | -0.0239 | 0.852 | -0.341 | -0.401 | -0.468 | 0.0252 | -0.272 | -0.364 | 0.669 | -0.142 | -0.116 | -0.0902 | 0.403 | -0.112 |
| UCUACAAAGGGAAGCCCUUUCUG | 0.66 | 0.12 | 0.423 | -0.778 | 0.712 | 0.229 | -0.0822 | -0.547 | 0.56 | -0.365 | -0.127 | -0.427 | -0.71 | 0.0225 |
| UCUACAGUGCACGUGUCU | 0.894 | 0.872 | -0.808 | 1.13 | 0.634 | -0.132 | -0.193 | -0.208 | 0.507 | 0.119 | -0.224 | -0.268 | 0 | -1.18 |
| UCUAGGCUGGUACUGCUGA | 0.751 | 0.628 | -0.172 | -0.185 | -0.812 | -0.385 | -0.226 | 0.217 | 0.874 | 0.681 | -0.9 | -0.326 | 0.447 | -0.473 |
| UCUAGUAAGAGUGGCAGUCG | -0.214 | -0.229 | 0.0816 | 1.81 | -1.19 | -0.108 | -0.21 | 1.23 | 0.506 | 0.771 | -0.209 | 0.0614 | 0.627 | 0.233 |
| UCUCCCAACCCUUGUACCAGUG | 0.779 | 0.5 | 0.0345 | -0.32 | -0.714 | 0.195 | 0.137 | -1.26 | -6.53 | -0.706 | 0.62 | -0.369 | 0.808 | 0.168 |
| UCUCUGGAGGGAAGCACUUUCUG | -1.64 | -0.393 | 1.47 | -0.501 | -0.609 | 1.18 | -0.075 | 0.444 | -1.99 | 0.306 | 0.317 | -2.09 | -2.97 | 1.92 |
